{"source": "patent US4740476A", "about": "“Immunoassay for estriol-3-sulfate” (Nihon Medi-Physics Co., Ltd., priority 1984, dated 1988)", "key": {"[1]": {"system": "anti-estriol-3-sulfate antibody immobilized on Sepharose 4B", "test": "Cross-reaction of various steroids in the radioimmunoassay (50% inhibition of labeled estriol-3-sulfate binding)", "design": "species or system guinea pig", "conditions": "mass ratio of non-labeled estriol-3-sulfate to each steroid required for 50% inhibition of labeled estriol-3-sulfate binding", "experimental": "(§1) A plasma specimen (0.1 ml) diluted with tris-HCl buffer (0.1 mol/liter; pH, 8.3) (containing glutamine (0.1 mol/liter)) was added thereto, and the resulting solution was incubated at 4° C. for 16 hours. The mixture was centrifuged at 3500 rpm for 20 minutes. A 0.2 ml aliquot of each supernatant was taken into a counting vial and admixed with Bray's scintillator, and radioactivity was counted in an Aloka LSC-673 liquid scintillation spectrometer.\nThe cross-reactivity is determined by calculating the mass ratio of non-labeled estriol-3-sulfate to each steriod required to show 50% inhibition of the labeled estiol-3-sulfate binding to the antibody."}, "[2]": {"molecular_target": "anti-estriol-3-sulfate antibody immobilized on Sepharose 4B", "test": "Scatchard plot of [3H]-estriol-3-sulfate binding to immobilized antibody", "design": "species or system guinea pig", "conditions": "immobilized antibody 1:500, incubation at 4° C. for 16 hours", "experimental": "as §1, with “spectrometer. […] FIG. 1 of the accompanying drawing showing the Scatchard plot graph of anti-estriol-3-sulfate antibody immobilized on Sepharose 4B).” for “spectrometer.”"}}, "note": "Structures can show the parent of a compound that is named as a salt.", "data": [{"smiles": "C[C@]12CC[C@@H]3c4cc(O)c(O)cc4CC[C@H]3[C@@H]1CCC2=O", "note": "[2-Hydroxyestrone]", "values": [{"measurement": "Cross-reaction (%)", "setting": "[1]", "value": "< 0.001", "unit": "%"}]}, {"smiles": "C[C@]12CCC(=O)C=C1CC[C@@H]1[C@@H]2CC[C@]2(C)C(=O)CC[C@@H]12", "note": "[4-Androsterone-3,17-dione]", "values": [{"measurement": "Cross-reaction (%)", "setting": "[1]", "value": "< 0.001", "unit": "%"}]}, {"smiles": "C[C@]12CC[C@@H]3c4ccc(O)c(O)c4CC[C@H]3[C@@H]1CCC2=O", "note": "[4-Hydroxyestrone]", "values": [{"measurement": "Cross-reaction (%)", "setting": "[1]", "value": "< 0.001", "unit": "%"}]}, {"smiles": "C[C@]12CC[C@@H]3c4ccc(O)cc4CC[C@H]3[C@@H]1C[C@H](O)[C@@H]2O", "note": "[16-Epiestriol]", "values": [{"measurement": "Cross-reaction (%)", "setting": "[1]", "value": "< 0.001", "unit": "%"}]}, {"smiles": "C[C@]12CC[C@@H](O)C[C@@H]1CC[C@@H]1[C@@H]2CC[C@]2(C)C(=O)CC[C@@H]12", "note": "[Androsterone]", "values": [{"measurement": "Cross-reaction (%)", "setting": "[1]", "value": "< 0.001", "unit": "%"}]}, {"smiles": "CC(C)CCC[C@@H](C)[C@H]1CC[C@H]2[C@@H]3CC=C4C[C@@H](OS(=O)(=O)O)CC[C@]4(C)[C@H]3CC[C@]12C", "note": "[Cholesterol sulfate]", "values": [{"measurement": "Cross-reaction (%)", "setting": "[1]", "value": 0.081, "unit": "%"}]}, {"smiles": "CC(C)CCC[C@@H](C)[C@H]1CC[C@H]2[C@@H]3CC=C4C[C@@H](O)CC[C@]4(C)[C@H]3CC[C@]12C", "note": "[Cholesterol]", "values": [{"measurement": "Cross-reaction (%)", "setting": "[1]", "value": "< 0.001", "unit": "%"}]}, {"smiles": "C[C@]12C[C@H](O)[C@H]3[C@@H](CCC4=CC(=O)CC[C@@]43C)[C@@H]1CC[C@@H]2C(=O)CO", "note": "[Corticosterone]", "values": [{"measurement": "Cross-reaction (%)", "setting": "[1]", "value": "< 0.001", "unit": "%"}]}, {"smiles": "C[C@]12CC[C@H](OS(=O)(=O)O)CC1=CC[C@@H]1[C@@H]2CC[C@]2(C)C(=O)CC[C@@H]12", "note": "[Dehydroepiandrosterone sulfate]", "values": [{"measurement": "Cross-reaction (%)", "setting": "[1]", "value": 0.077, "unit": "%"}, {"measurement": "Cross-reaction (%)", "setting": "[1]; listed as dehydroepiandrosterone sulfate", "value": 0.77, "unit": "%"}]}, {"smiles": "C[C@]12CC[C@H](O)CC1=CC[C@@H]1[C@@H]2CC[C@]2(C)C(=O)CC[C@@H]12", "note": "[Dehydroepiandrosterone]", "values": [{"measurement": "Cross-reaction (%)", "setting": "[1]", "value": "< 0.001", "unit": "%"}]}, {"smiles": "C[C@]12CC[C@@H]3c4ccc(OS(=O)(=O)O)cc4CC[C@H]3[C@@H]1CC[C@@H]2O", "note": "[Estradiol-3-sulfate]", "values": [{"measurement": "Cross-reaction (%)", "setting": "[1]", "value": 0.144, "unit": "%"}]}, {"smiles": "C[C@]12CC[C@@H]3c4ccc(O)cc4CC[C@H]3[C@@H]1CC[C@@H]2O[C@@H]1O[C@H](C(=O)O)[C@@H](O)[C@H](O)[C@H]1O", "note": "[Estradiol-17-glucuronide]", "values": [{"measurement": "Cross-reaction (%)", "setting": "[1]", "value": "< 0.001", "unit": "%"}]}, {"smiles": "C[C@]12CC[C@@H]3c4ccc(O)cc4CC[C@H]3[C@@H]1CC[C@@H]2O", "note": "[Estradiol]", "values": [{"measurement": "Cross-reaction (%)", "setting": "[1]", "value": "< 0.001", "unit": "%"}]}, {"smiles": "C[C@]12CC[C@@H]3c4ccc(O[C@@H]5O[C@H](C(=O)O)[C@@H](O)[C@H](O)[C@H]5O)cc4CC[C@H]3[C@@H]1C[C@@H](O)[C@@H]2O", "note": "[Estriol-3-glucuronide]", "values": [{"measurement": "Cross-reaction (%)", "setting": "[1]", "value": 0.050, "unit": "%"}]}, {"smiles": "C[C@]12CC[C@@H]3c4ccc(OS(=O)(=O)O)cc4CC[C@H]3[C@@H]1C[C@@H](O)[C@@H]2O", "note": "[Estriol-3-sulfate]", "values": [{"measurement": "association constant (Ka)", "setting": "[2]", "value": "4.3e+09", "unit": "L/mol"}, {"measurement": "Cross-reaction (%)", "setting": "[1]", "value": 100, "unit": "%"}]}, {"smiles": "C[C@]12CC[C@@H]3c4ccc(O)cc4CC[C@H]3[C@@H]1C[C@@H](O[C@@H]1O[C@H](C(=O)O)[C@@H](O)[C@H](O)[C@H]1O)[C@@H]2O", "note": "[Estriol-16-glucuronide]", "values": [{"measurement": "Cross-reaction (%)", "setting": "[1]", "value": "< 0.001", "unit": "%"}]}, {"smiles": "C[C@]12CC[C@@H]3c4ccc(O)cc4CC[C@H]3[C@@H]1C[C@@H](O)[C@@H]2O[C@@H]1O[C@H](C(=O)O)[C@@H](O)[C@H](O)[C@H]1O", "note": "[Estriol-17-glucuronide]", "values": [{"measurement": "Cross-reaction (%)", "setting": "[1]", "value": "< 0.001", "unit": "%"}]}, {"smiles": "C[C@]12CC[C@@H]3c4ccc(O)cc4CC[C@H]3[C@@H]1C[C@@H](O)[C@@H]2O", "note": "[Estriol]", "values": [{"measurement": "Cross-reaction (%)", "setting": "[1]", "value": 0.033, "unit": "%"}]}, {"smiles": "C[C@]12CC[C@@H]3c4ccc(O[C@@H]5O[C@H](C(=O)O)[C@@H](O)[C@H](O)[C@H]5O)cc4CC[C@H]3[C@@H]1CCC2=O", "note": "[Estrone glucuronide]", "values": [{"measurement": "Cross-reaction (%)", "setting": "[1]", "value": "< 0.001", "unit": "%"}]}, {"smiles": "COc1ccc2c(c1)CC[C@@H]1[C@@H]2CC[C@]2(C)C(=O)CC[C@@H]12", "note": "[Estrone methyl ether]", "values": [{"measurement": "Cross-reaction (%)", "setting": "[1]", "value": "< 0.001", "unit": "%"}]}, {"smiles": "C[C@]12CC[C@@H]3c4ccc(OS(=O)(=O)O)cc4CC[C@H]3[C@@H]1CCC2=O", "note": "[Estrone sulfate]", "values": [{"measurement": "Cross-reaction (%)", "setting": "[1]", "value": 0.060, "unit": "%"}]}, {"smiles": "C[C@]12CC[C@@H]3c4ccc(O)cc4CC[C@H]3[C@@H]1CCC2=O", "note": "[Estrone]", "values": [{"measurement": "Cross-reaction (%)", "setting": "[1]", "value": "< 0.001", "unit": "%"}]}, {"smiles": "CC(=O)[C@H]1CC[C@H]2[C@@H]3CCC4=CC(=O)CC[C@]4(C)[C@H]3CC[C@]12C", "note": "[Progesterone]", "values": [{"measurement": "Cross-reaction (%)", "setting": "[1]", "value": "< 0.001", "unit": "%"}]}, {"smiles": "C[C@]12CC[C@H]3[C@@H](CCC4=CC(=O)CC[C@@]43C)[C@@H]1CC[C@@H]2OS(=O)(=O)O", "note": "[Testosterone sulfate]", "values": [{"measurement": "Cross-reaction (%)", "setting": "[1]", "value": 0.004, "unit": "%"}]}, {"smiles": "C[C@]12CC[C@H]3[C@@H](CCC4=CC(=O)CC[C@@]43C)[C@@H]1CC[C@@H]2O", "note": "[Testosterone]", "values": [{"measurement": "Cross-reaction (%)", "setting": "[1]", "value": "< 0.001", "unit": "%"}]}]}
